The text below walks through data of patent US8735391B2, “Synthesis of functionalized octahydro-isoquinolin-1-one-8-carboxamides, octahydro-isoquinolin-1-one-8-carboxylic esters and analogs, and therapeutic methods” (University of Kansas, priority 2008, dated 2014).

Assay [1] addresses T1, KOR (Homo sapiens, UniProt P41145). In words: Opioid secondary binding, KOR (Tables 4, 5, 8, 9). The note with it: Opioid secondary binding activity for Formula 10 analogs; read-out: KOR, Ki.
The target in a further assay is DOR (Homo sapiens, UniProt P41143). In words: Opioid secondary binding, DOR (Table 4). The note with it: Opioid secondary binding activity for Formula 10 analogs.
Sequence of DOR (P41143 whole entry): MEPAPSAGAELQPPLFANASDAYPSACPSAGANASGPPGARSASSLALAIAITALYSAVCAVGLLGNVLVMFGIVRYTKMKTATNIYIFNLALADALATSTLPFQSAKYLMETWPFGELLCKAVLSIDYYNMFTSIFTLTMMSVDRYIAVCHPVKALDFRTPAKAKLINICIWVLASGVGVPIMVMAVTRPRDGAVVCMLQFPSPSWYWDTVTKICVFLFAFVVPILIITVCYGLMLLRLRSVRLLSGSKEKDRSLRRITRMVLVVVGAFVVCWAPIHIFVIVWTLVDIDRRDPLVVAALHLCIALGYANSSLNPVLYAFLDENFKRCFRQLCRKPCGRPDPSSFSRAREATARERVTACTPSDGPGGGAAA
In assay [2] the target is T1, KOR. In words: [35S]GTPγS binding functional agonist assay on membranes of CHO cells expressing hKOR (reference agonist U69593). Format: biochemical. More on the design: expressed in transfected cells; host or cells: CHO cells, stably transfected; crude membrane fractions. Conditions: test compound at 10 micromolar; N=4; reference agonist = 100%; CHO-cell line expressing hKOR. How it is done:
The compounds prepared herein were tested for bioactivity with opioid receptors. Agonist assays: Data represent the percent efficacy (relative to cognate agonist) of the test compound at 10 micromolar. The response to a saturating concentration of a reference antagonist or to vehicle (usually none or negligible) is set to 0%. […] The response inhibition elicited by a saturating concentration of reference antagonist is set to 100%; the response inhibition (usually none or negligible) elicited by vehicle is set to 0%. The following tables provide data related to the bioactivity for opioid receptors of the compounds described herein.
Table 6 provides data that represent the average percent efficacy (N=4; relative to cognate agonist) of the test compound at 10 micromolar concentration. The response to a saturating concentration of cognate/reference agonist is set to 100%; the response to a saturating concentration of a reference antagonist or to vehicle (usually none or negligible) is set to 0%. All functional assays are performed on stably transfected CHO-cell lines expressing hKOR, hMOR or hDOR.
(§1) Serial dilutions of the test and reference compounds are made in binding buffer at 2× assay concentration (final assay concentrations ranging from 0.1 nM to 10 μM). Crude membrane fractions (1.8 to 3.5 cm2/well) (prepared from 10-cm plates by harvesting PBS-rinsed monolayers, resuspending and lysing in chilled, hypotonic 50 mM Tris-HCl, pH 7.4, centrifuging at 20,000×g, decanting the supernatant and storing at −80 degrees centigrade; typically, one 10-cm plate provides sufficient material for 24 wells) are resuspended in 1.2 ml of assay buffer containing 20 μM GDP, wheat germ agglutinin (WGA)-coated scintillation proximity beads (2.4 mg), and [35S]GTPγS (300 pM final). The suspension is then added (50 μl/well) to 50 μl of the 2× test or reference compounds (each concentration assayed in triplicate) in flexible transparent PET 96-well plates. The reaction plate is sealed and incubated for 90 min at room temperature, then centrifuged for 5 min at 216×g, and finally loaded into a Wallac MicroBeta TriLux counter. Non-specific [35S]GTPγS binding is assessed at the maximum concentration of reference agonist in the presence of 10 μM antagonist. The background signal is measured at 10 μM reference agonist in the presence of 10 μM unlabeled GTPγS. Raw data (dpm) representing total [35S]GTPγS binding (i.e., specific+non-specific binding) are calculated as a percentage of the maximum response by the reference agonist (in this case U69593).
as §1, with “GTPγS.” for “GTPγS. Raw data (dpm) representing total [35S]GTPγS binding (i.e., specific+non-specific binding) are calculated as a percentage of the maximum response by the reference agonist (in this case U69593).”
A general note: GTPγS resists hydrolysis and so accumulates on activated G proteins.

The term Ki denotes a dissociation constant, usually derived from enzyme kinetics or from competition with a known ligand.

T1 sequence (P41145 whole entry): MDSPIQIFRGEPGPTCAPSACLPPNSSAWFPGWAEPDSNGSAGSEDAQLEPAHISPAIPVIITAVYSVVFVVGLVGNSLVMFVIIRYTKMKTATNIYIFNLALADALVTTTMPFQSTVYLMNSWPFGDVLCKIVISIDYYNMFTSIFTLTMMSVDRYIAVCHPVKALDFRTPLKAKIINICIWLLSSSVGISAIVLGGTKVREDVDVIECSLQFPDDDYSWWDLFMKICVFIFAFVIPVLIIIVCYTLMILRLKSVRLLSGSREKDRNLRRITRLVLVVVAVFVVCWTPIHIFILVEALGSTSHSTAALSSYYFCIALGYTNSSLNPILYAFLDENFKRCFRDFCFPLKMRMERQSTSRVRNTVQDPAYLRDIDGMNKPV

With `O=C(Nc1ccc(Br)c(C(F)(F)F)c1)[C@@H]1CC=C[C@@H]2CCN(Cc3ccccc3F)C(=O)[C@@H]21` (racemic) [compound 13478], the inhibition constant (Ki) stood at 0.299 µM on KOR [1] and 0.022 µM on DOR. As to `Cc1ccc(NC(=O)[C@@H]2CC=C[C@@H]3CCN(Cc4ccccc4)C(=O)[C@@H]32)cc1C(F)(F)F` (racemic) [compound 13475], the results for the Ki on KOR [1] and at DOR were 1.16 µM and 0.039 µM, respectively. `O=C(NCc1ccc(Cl)c(Cl)c1)[C@@H]1CC=C[C@@H]2CCN(Cc3ccccc3)C(=O)[C@@H]21` (racemic) [compound 12148]: the Ki at KOR [1] is 2.78 µM; at DOR, 0.644 µM. For the compound `O=C(Nc1ccc(Br)c(C(F)(F)F)c1)[C@@H]1CC=C[C@@H]2CCN(Cc3cccc(Br)c3)C(=O)[C@@H]21` (racemic) [compound 12171], the Ki came out at 0.694 µM at KOR [1] and 0.503 µM on DOR. `COc1ccc(CNC(=O)[C@@H]2CC=C[C@@H]3CCN(C4CC4)C(=O)[C@@H]32)cc1` (racemic) [compound 8925]: the “KOR agonist (average percent efficacy relative to cognate agonist)” value at KOR [2] turned out to be 5.4%. With `O=C(Nc1ccc([N+](=O)[O-])c(C(F)(F)F)c1)[C@@H]1CC=C[C@@H]2CCN(Cc3ccccc3)C(=O)[C@@H]21` (racemic) [compound 11932], the Ki at KOR [1] turned out to be 0.2 µM; at DOR, 0.041 µM. On the same counts, the results for `Cc1ccc(NC(=O)[C@@H]2CC=C[C@@H]3CCN(Cc4ccccc4)C(=O)[C@@H]32)cc1Cl` (racemic) [compound 11931] are 2.57 µM and 0.061 µM. On the same counts, the results for `O=C(NCc1cccc(Br)c1)[C@@H]1CC=C[C@@H]2CCN(Cc3ccccc3)C(=O)[C@@H]21` (racemic) [compound 11955] are 3.27 µM and 0.438 µM. On the same counts, the results for `O=C(Nc1ccc(Cl)cc1)[C@@H]1CC=C[C@@H]2CCN(Cc3ccccc3)C(=O)[C@@H]21` (racemic) [compound 12102] are 5.03 µM and 0.165 µM.

With `CC(c1ccccc1)N1CCC2C=CCC(C(=O)Nc3ccccc3)C2C1=O` (mixture of isomers) [compound 12164], the Ki at KOR [1] came to 4.78 µM; on DOR it was 1.38 µM. On to `CCOC(=O)C1CCCCN1C(=O)[C@@H]1CC=C[C@@H]2CCN(Cc3ccccc3)C(=O)[C@@H]21` (mixture of isomers) [compound 12127], for which the Ki on DOR was more than 10 µM. In the case of `CC(c1ccccc1)N1CCC2C=CCC(C(=O)NC3CCCCC3)C2C1=O` (mixture of isomers) [compound 12163], the results for the Ki on KOR [1] and at DOR were 5.91 µM and 1.16 µM, respectively. In turn, `Cc1ccc(NC(=O)[C@@H]2CC=C[C@@H]3CCN(Cc4ccccc4)C(=O)[C@@H]32)c(F)c1F` (racemic) [compound 13476] registered a Ki at DOR of 0.559 µM. As for `COc1ccccc1CN1CC[C@H]2C=CC[C@@H](C(=O)Nc3ccc(C)c(C(F)(F)F)c3)[C@H]2C1=O` (racemic) [compound 13481], the Ki at KOR [1] stood at 1.9 µM; on DOR, 1.34 µM. In turn, `O=C(Nc1ccc(Br)c(C(F)(F)F)c1)[C@@H]1CC=C[C@@H]2CCN(CC3CC3)C(=O)[C@@H]21` (racemic) [compound 12172] registered a Ki on DOR of 1.28 µM. Still for that read-out and setting: the result for `O=C(Nc1ccccc1)[C@@H]1CC=C[C@@H]2CCN(Cc3ccccc3)C(=O)[C@@H]21` (racemic) [compound 12125] reads more than 10 µM; that for `CN(C)C(=O)[C@@H]1CC=C[C@@H]2CCN(C3CCCCC3)C(=O)[C@@H]21` (racemic) [compound 12086], more than 10 µM. On the same count and under the same terms, under `Cc1cc(C)c(NC(=O)[C@@H]2CC=C[C@@H]3CCN(CC4CC4)C(=O)[C@@H]32)c(C)c1` (racemic) [compound 11945] stands more than 10 µM; under `Cc1ccc(NC(=O)[C@@H]2CC=C[C@@H]3CCN(Cc4ccccc4F)C(=O)[C@@H]32)cc1C(F)(F)F` (racemic) [compound 13479], 0.0095 µM. Still for that read-out and setting: under `O=C(NCC1CC1)[C@@H]1CC=C[C@@H]2CCN(c3ccccc3)C(=O)[C@@H]21` (racemic) [compound 12095] stands 1.23 µM; under `O=C(Nc1ccc([N+](=O)[O-])cc1)[C@@H]1CC=C[C@@H]2CCN(c3ccccc3)C(=O)[C@@H]21` (racemic) [compound 11947], 0.141 µM; under `O=C(Nc1ccc(I)cc1)[C@@H]1CC=C[C@@H]2CCN(CC3CC3)C(=O)[C@@H]21` (racemic) [compound 11942], 1.28 µM. On to `O=C(Nc1cc(F)c(F)c(F)c1)[C@@H]1CC=C[C@@H]2CCN(Cc3ccccc3)C(=O)[C@@H]21` (racemic) [compound 12103], for which the Ki on DOR worked out at 0.18 µM.

On to `CN(C(=O)[C@@H]1CC=C[C@@H]2CCN(c3ccccc3)C(=O)[C@@H]21)c1ccccc1` (racemic) [compound 12119], for which the Ki at DOR came out at 4.01 µM. As to `O=C(Nc1ccc(Cl)c(C(F)(F)F)c1)[C@@H]1CC=C[C@@H]2CCN(Cc3cccc(Br)c3)C(=O)[C@@H]21` (racemic) [compound 12170], the Ki on KOR [1] came to 1.46 µM; at DOR, 1.72 µM. `Cc1cc(C)c(NC(=O)[C@@H]2CC=C[C@@H]3CCN(Cc4ccccc4)C(=O)[C@@H]32)c(C)c1` (racemic) [compound 11957]: the affinity on DOR, expressed as Ki, was 3.22 µM. On DOR, `CC(c1ccccc1)N1CCC2C=CCC(C(=O)Nc3ccc(F)c(F)c3)C2C1=O` (mixture of isomers) [compound 12166] yielded a Ki of 3.2 µM.

In turn, `O=C(NCC1CC1)[C@@H]1CC=C[C@@H]2CCN(Cc3ccccc3)C(=O)[C@@H]21` (racemic) [compound 12100] yielded an inhibition constant Ki on DOR of 0.539 µM. Still for that read-out and setting: the result for `O=C(Nc1ccccc1)[C@@H]1CC=C[C@@H]2CN(C3CCCCC3)C(=O)[C@@H]21` (racemic) [compound 14435] reads 1.61 µM. With `O=C(Nc1ccc(I)cc1)[C@@H]1CC=C[C@@H]2CCN(Cc3ccccc3)C(=O)[C@@H]21` (racemic) [compound 11954], the results for the Ki on KOR [1] and at DOR were 2.83 µM and 0.194 µM, respectively. As for `O=C(Nc1ccc(Br)c(C(F)(F)F)c1)[C@@H]1CC=C[C@@H]2CN(C3CCCCC3)C(=O)[C@@H]21` (racemic) [compound 14438], the Ki on DOR was determined as 1.92 µM. `CC(C)N(C(=O)[C@@H]1CC=C[C@@H]2CCN(CC3CCCCC3)C(=O)[C@@H]21)C1CCCCC1` (racemic) [compound 12134] returned a Ki at DOR of 1.63 µM. On the same count and under the same terms, the result for `O=C(Nc1cccnc1)[C@@H]1CC=C[C@@H]2CCN(C3CCCCC3)C(=O)[C@@H]21` (racemic) [compound 11921] reads 0.836 µM; that for `O=C(Nc1ccc(Br)c(C(F)(F)F)c1)[C@@H]1CC=C[C@@H]2CN(Cc3ccccc3)C(=O)[C@@H]21` (racemic) [compound 14432], 2.77 µM. Consider `O=C(Nc1ccc(Cl)cc1)[C@@H]1CC=C[C@@H]2CCN(c3ccccc3)C(=O)[C@@H]21` (racemic) [compound 12097], for which the Ki on DOR was 0.168 µM. On the same count and under the same terms, the result for `O=C(Nc1ccc(Cl)c(C(F)(F)F)c1)[C@@H]1CC=C[C@@H]2CCN(CC3CC3)C(=O)[C@@H]21` (racemic) [compound 12156] reads 0.788 µM. On the same count and under the same terms, under `COc1ccc(CNC(=O)[C@@H]2CC=C[C@@H]3CCN(Cc4ccccc4)C(=O)[C@@H]32)cc1OC` (racemic) [compound 12126] stands more than 10 µM; under `O=C(Nc1cccc(Cl)c1)[C@@H]1CC=C[C@@H]2CCCN(C3CCCCC3)C(=O)[C@@H]21` (racemic) [compound 14425], 6.04 µM. Still for that read-out and setting: under `O=C(Nc1ccc(I)cc1)[C@@H]1CC=C[C@@H]2CCN(c3ccccc3)C(=O)[C@@H]21` (racemic) [compound 11948] stands 0.083 µM.
